Structures are written as SMILES.

A short description of the data set: Human HepG2 cell viability assay in 384 well format. The note with it: HepG2 cells, read-out: Inhibition. Format: toxicity, cell-based. Set-up: dose 125 nL, time 70.5 hour; cytotoxicity at 70.5 h: concentration not given beside the values.
Take `CN1CCCC[C@@H]2[C@H]1[C@@H](c1ccccc1)CCN2C(=O)c1ccccn1`: the cytotoxicity at 70.5 h was -9.11%.

In the case of `Cc1nc(N2CCCC(N3CCCC3)C2)c2cnn(C)c2n1` (stereo not drawn), the cytotoxicity at 70.5 h is -5.42%. For `CCN(Cc1csc(CS(C)(=O)=O)n1)c1cccc(F)c1`, the cytotoxicity at 70.5 h is -7.29%. Take `CCOC1CCCN(C(=O)c2[nH]nc(C3CC3)c2Br)C1` (stereo not drawn): the cytotoxicity at 70.5 h is -6.37%. The result for `CN(C)Cc1ccnc(C2CCCN2Cc2ccncc2)n1` (stereo not drawn) reads 18.5%; that for `Cc1cc(NC2CCN(c3ccccc3)C2)n2ncnc2n1` (stereo not drawn), -5.01%; that for `O=C(NCCn1nc(-n2cncn2)ccc1=O)c1ccc(F)cc1F`, -5.23%. With `CC(C)OCCCNC(=O)CS(=O)(=O)Cc1ccc(C(C)(C)C)cc1` the figure was -5.34%. The result for `O=C(NCCc1coc(-c2ccc(F)cc2)n1)NCC1CCOC1` (stereo not drawn) reads 20.9%. As to `CCS(=O)(=O)NCC(=O)N1CCC(c2cc3ccccc3[nH]2)CC1`, the cytotoxicity at 70.5 h stood at 1.52%. `CCN1CCCC(c2c(-c3ccccc3)ncn2CC(N)=O)C1` (stereo not drawn): the cytotoxicity at 70.5 h is -0.352%. With `COCCN1C[C@H]2CC[C@@H]1CN(Cc1cc(=O)c3cc(C)ccc3[nH]1)C2` the figure was -7.09%; with `COCC(O)CN(C)c1ccnc2ccc(Cl)cc12` (stereo not drawn), 13.9%. With `Cc1ccccc1-c1cc(C(=O)NCCN2CCCS2(=O)=O)[nH]n1`, the cytotoxicity at 70.5 h was -15.5%.

Consider `CN1CC(c2ccccc2)CC2(CCN(C(=O)c3cccnn3)CC2)C1` (stereo not drawn), for which the cytotoxicity at 70.5 h is -4.99%. With `OC[C@H]1CCCN1c1nccc(-c2c[nH]nc2C2CCCCC2)n1` the figure was 2.37%; with `CN(C)C(=O)N[C@H]1CN(Cc2ccc3c(c2)OCO3)[C@@H]2CCCO[C@H]12`, -12.8%. With `c1cc2n(n1)CC(CNCc1ccc(OC3CCCC3)nc1)CN2` (stereo not drawn) the figure was -14.1%. Turning to `COCc1cc(NCCc2ccc(OC)cc2)n2nccc2n1`, the cytotoxicity at 70.5 h is -24.5%. With `COc1ccc(OC)c(C(=O)N2CCC(Nc3cccnc3)CC2)c1` the figure was -0.864%. With `COc1cccc(CNCc2c(C)nn(C)c2N(C)C)c1` the figure was 0.816%; with `CCNc1cc2c(nn1)CCN(C(=O)Cc1noc3ccccc13)C2`, -12.5%; with `CC(C)S(=O)(=O)NC(=O)CC(c1ccccc1)C(F)(F)F` (stereo not drawn), -9.01%. The result for `CN(CC(=O)N1CCC(N(C)c2ccccc2)CC1)c1cnccn1` reads 0.531%; that for `Cc1nn(CC(=O)O)c(C)c1NS(=O)(=O)c1cccc2ccccc12`, -6.18%; that for `O=C(CCc1nc(Cl)n[nH]1)NC1CCCN(C2Cc3ccccc3C2)C1` (stereo not drawn), -9.23%. In the case of `O=C1COc2c(cccc2C(=O)N2CCCCC2Cn2cccn2)N1` (stereo not drawn), the cytotoxicity at 70.5 h is -4.26%. With `Cc1cccc(C(=O)N2CCC3(CCN(c4cnn(C)c4)C3=O)C2)n1` (stereo not drawn) the figure was -1.73%; with `COc1ccccc1NC(=O)CC(C)NCCc1sc(C)nc1C` (stereo not drawn), 8.63%; with `Cn1ccc(C(=O)N2CCC(Cc3cnc4[nH]ccc4c3)CC2)n1`, -5.86%. As to `COCC(=O)N1Cc2cn(C)nc2C(COc2cccnc2)C1` (stereo not drawn), the cytotoxicity at 70.5 h was found to be 9.02%. The result for `COCCN1CCCC(Cc2cnc(-c3c(C)nn(C)c3C)cn2)C1` (stereo not drawn) reads -5.51%. With `Cn1c(CS(=O)(=O)c2ccc(Cl)cc2)cc(=O)n(C)c1=O` the figure was -4.14%; with `O=c1oc(-c2ccc(F)cc2)nn1CCS(=O)(=O)c1ccccc1`, -9.58%; with `CCc1nc2ccccc2n1C(CC)C(=O)N(C)Cc1nc(C)c[nH]1` (stereo not drawn), 21.7%. `CCOc1ccc(C(=O)NC2CCN(c3ncccn3)CC2)cc1C`: the cytotoxicity at 70.5 h is -0.65%. With `CCC(C)NC(=O)c1nn(C)c(NC(=O)c2ccccc2OC)c1F` (stereo not drawn) the figure was -10.8%; with `O=C(NS(=O)(=O)Cc1ccon1)c1ccsc1`, -3.39%. On to `O=C(c1ccc(C2CCCN2)s1)N1CCN(C(=O)N2CCOCC2)CC1` (stereo not drawn), for which the cytotoxicity at 70.5 h was -6.24%. In the case of `O=C1CN(C(=O)c2cc3c(F)cc(Br)cc3[nH]2)CCN1`, the cytotoxicity at 70.5 h is -4.59%. The result for `CN(C)c1cc(C(=O)N2CCCC(n3cccn3)C2)ccn1` (stereo not drawn) reads -11.4%; that for `Cc1cc(CC(C)Nc2ncnc3cccc(F)c23)[nH]n1` (stereo not drawn), 2.32%; that for `Cc1ccc(-c2nc(CN3CCCC3Cn3cncn3)cs2)o1` (stereo not drawn), -2.7%. In the case of `CCc1cc(N2CC(N3CCCCC3C)C2)n2nccc2n1` (stereo not drawn), the cytotoxicity at 70.5 h turned out to be 6.74%. Regarding `CCc1cccc(OCCn2cccc(C#N)c2=O)c1`, the cytotoxicity at 70.5 h was -8.55%.

As to `CC(OCC(F)(F)F)C(=O)N1CCN(S(C)(=O)=O)CC1` (stereo not drawn), the cytotoxicity at 70.5 h was -1.69%. With `CCCc1n[nH]c(C2CN(C(=O)CCCn3ccnc3)CCO2)n1` (stereo not drawn) the figure was -0.218%. The result for `c1ccc(-c2nc(CN3CCCC(Cn4cncn4)C3)cs2)cc1` (stereo not drawn) reads -6.56%. With `COc1cc(OC)cc(-c2cc(N)on2)c1`, the cytotoxicity at 70.5 h was -7.45%. In the case of `Cc1ccc(CN2CCN(c3ccc(F)cn3)CC2=O)cc1C`, the cytotoxicity at 70.5 h was -3.51%. The result for `Cc1nc(C2(NCc3c(C)nn(C)c3N3CCOCC3)CCC2)no1` reads 10.7%; that for `COc1ccc(CN2C[C@H]3CN(c4cncnc4)C(=O)[C@H]3C2)cc1`, -5.39%. The result for `CC(C)(C)c1noc(OCC(=O)NCC(F)(F)F)n1` reads -0.303%; that for `Cn1ncc(CN2CCc3onc(-c4cccc(F)c4)c3C2)c1C1CC1`, -11.6%.

Take `COc1c(C)cnc(CN(C)C(=O)c2cccnc2N(C)C)c1C`: the cytotoxicity at 70.5 h is -0.657%.

As to `N#Cc1ccc(F)c(CN2CCCC2Cn2cncn2)c1` (stereo not drawn), the cytotoxicity at 70.5 h is -5.36%. The result for `COCCNC(=O)c1nnc2ccc(N3CCOCC3)cc2n1` reads 23.1%; that for `O=C(NCc1cncc2c1CCN(C1CCOCC1)C2)c1ccco1`, -2.15%; that for `CCOc1ccc(C(=O)N2CCCS2(=O)=O)cc1OC`, -4.2%. The result for `CCC(=O)N1CCCN(C(=O)c2cc(C)cc(Br)c2O)CC1` reads -1.86%. The result for `Cc1nc(CN2CCCC(CCc3ccc(F)c(F)c3)C2)c[nH]1` (stereo not drawn) reads 19.5%.

Take `c1cc(CNCc2ccc3c(c2)CCO3)cc(N2CCOCC2)n1`: the cytotoxicity at 70.5 h is -9.64%. Regarding `COc1ccc(C(=O)NCc2ccc(C(=O)O)o2)cc1`, the cytotoxicity at 70.5 h is 27.3%.

`Cc1c(Cl)c(CN2CCCC2Cn2cncn2)nc2ccccc12` (stereo not drawn): the cytotoxicity at 70.5 h was -6.2%. With `COCC(=O)N1CCC(c2cc(C(F)(F)F)n3ccnc3n2)CC1` the figure was -8.3%; with `CC(C)c1nccc(CN2CCCC(O)(CN(C)C)CC2)n1` (stereo not drawn), -7.74%. The result for `CN1CCN(C(=O)CCCc2ccccn2)c2ccc(F)cc21` reads 14.3%; that for `COc1ccc(-n2ccc(C(=O)N3CCN(C)CC3C)n2)cc1` (stereo not drawn), -5.83%.

For the molecule `Cc1cc(C)c(S(=O)(=O)Nc2ccccc2CC(F)(F)F)cc1C(=O)O`, the cytotoxicity at 70.5 h is -8.62%. With `CC(C)(C)C(O)CN1CCN(Cc2nccn2CC(F)(F)F)CC1` (stereo not drawn), the cytotoxicity at 70.5 h is 17.5%.

With `CCCc1nc(CN(CC)Cc2ccc(O)c(C(=O)O)c2)no1`, the cytotoxicity at 70.5 h was -8.69%. For the molecule `CC1CCN(C(=O)c2ccnc(-n3cncn3)c2)c2ccccc21` (stereo not drawn), the cytotoxicity at 70.5 h was 13.2%. As for `CN(C(=O)Nc1cccnc1)C1CCN(c2ccc(Cl)cc2)CC1`, the cytotoxicity at 70.5 h was found to be 0.04%. With `COCCCNC(=O)CN(C)C(=O)c1ccc(-n2cccc2)cc1O` the figure was -0.626%. The result for `CC(=O)NCC(=O)N1Cc2nccn2CC(CN2CCCC2)C1` (stereo not drawn) reads 0.0844%; that for `CC(C)N1CCC(CN2CCn3nc(CNC(=O)N(C)C)cc3C2)CC1`, 4.16%; that for `OCC1CCCN1c1cc(NCc2cc3ccccc3o2)ncn1` (stereo not drawn), -18.3%. With `CCN1C(=O)C2(CCOCC2)c2cc(NC(=O)c3cnoc3C)ccc21` the figure was -6.08%; with `NC(=O)C1CCCN(C(=O)c2cccc(OCc3cscn3)c2)C1` (stereo not drawn), -9.59%; with `CCC(CO)N(Cc1cccnc1)C(=O)c1ccoc1C` (stereo not drawn), 0.679%.

As for `CCOC1CCN(CC(=O)Nc2oc(C)c3c(C)n[nH]c(=O)c23)CC1`, the cytotoxicity at 70.5 h is -4.42%. For the molecule `O=C(Cn1ccc2ncccc2c1=O)N1CCCCC1`, the cytotoxicity at 70.5 h came out at 13.3%.

Regarding `Cc1ncc(CNC(=O)Cc2ccc(Cl)cc2)c(C2CCCN2C)n1` (stereo not drawn), the cytotoxicity at 70.5 h is -16.7%. In the case of `COCCC1(CO)CCCN(CCCc2ccccc2)C1` (stereo not drawn), the cytotoxicity at 70.5 h is 22.6%. The result for `O=C([C@@H]1C[C@@H]2CCN(Cc3ccco3)C[C@H]2O1)N1CCCO1` reads -0.42%; that for `CCc1ccc(C(=O)NC2CCc3nc(C)cn3C2)o1` (stereo not drawn), -4.82%; that for `CCCc1noc(-c2cn(CC(=O)N(CC)CC)nn2)n1`, -4.55%. The result for `NS(=O)(=O)c1ccc(CC(=O)N2CCCC(n3cccn3)C2)cc1` (stereo not drawn) reads -7.64%. With `O=C(CCc1cc(Cl)no1)N1CCC(c2cc3ncccc3cn2)CC1` the figure was 0.563%; with `COc1cccc(CNC(=O)N2CCCC(Cn3cc(CN)nn3)C2)c1` (stereo not drawn), -5.66%. In the case of `CCCn1nnnc1COc1cc(OC)ccc1C(N)=O`, the cytotoxicity at 70.5 h is -7.31%. With `CC(=O)N1CCCC2(CCN(C(=O)c3nn(C)c4ccccc34)CC2)C1` the figure was 29.2%; with `CN(Cc1cccnc1)[C@@H]1CN(C(=O)c2ccoc2)[C@@H]2CCCO[C@H]12`, -11.9%. For `CN(C)Cc1cc(=O)n2c(n1)CN(S(=O)(=O)C1CC1)CCC2`, the cytotoxicity at 70.5 h is -6.08%. The result for `CC(C)(C)c1cc(C[C@H]2CNCC[C@H]2CC(=O)Nc2ccccc2)no1` reads -2.1%; that for `CCCc1nc(CN2CCOC(Cn3cncn3)C2)cs1` (stereo not drawn), 22.5%; that for `CC1c2ncc(COCC3CC3)n2CCN1S(=O)(=O)N(C)C` (stereo not drawn), -1.15%. The result for `CC(C)C(=O)Nc1ncn(Cc2cccc(Br)c2)n1` reads -9.36%.

The record behind these values is ChEMBL document CHEMBL3507680, “University of Dundee, Gates Library screen for HepG2 cell viability”.
